Reference: ChEMBL document CHEMBL5149996, “Structure-Based Optimization and Discovery of M3258, a Specific Inhibitor of the Immunoproteasome Subunit LMP7 (β5i)” (J Med Chem, 2021)

What was measured:
Homo sapiens [1] = species: Homo sapiens; experiment: Selectivity ratio of IC50 for inhibition of human 20S proteasome beta5 subunit to IC50 for inhibition of human 20S immunoproteasome beta-5i subunit
[2] = molecular target: T1, Proteasome Macropain subunit MB1 (Homo sapiens, UniProt P28074); experiment: Inhibition of human 20S proteasome beta5 subunit using Suc-LLVY-AMC as substrate preincubated for 2 hrs followed by substrate addition and measured after 1 hr by fluorescence intensity assay
T1 sequence (P28074 whole entry): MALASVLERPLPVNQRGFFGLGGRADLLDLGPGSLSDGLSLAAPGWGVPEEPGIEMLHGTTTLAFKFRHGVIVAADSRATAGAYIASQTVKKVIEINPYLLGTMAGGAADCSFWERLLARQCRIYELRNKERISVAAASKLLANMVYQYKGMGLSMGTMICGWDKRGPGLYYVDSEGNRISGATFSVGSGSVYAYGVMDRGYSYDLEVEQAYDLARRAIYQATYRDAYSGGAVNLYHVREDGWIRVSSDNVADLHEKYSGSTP

[3] = molecular target: T2, Proteasome subunit beta type-8 (Homo sapiens, UniProt P28062); experiment: Inhibition of human 20S immunoproteasome beta-5i subunit using Suc-LLVY-AMC as substrate preincubated for 2 hrs followed by substrate addition and measured after 1 hr by fluorescence intensity assay
T2 sequence (P28062 whole entry): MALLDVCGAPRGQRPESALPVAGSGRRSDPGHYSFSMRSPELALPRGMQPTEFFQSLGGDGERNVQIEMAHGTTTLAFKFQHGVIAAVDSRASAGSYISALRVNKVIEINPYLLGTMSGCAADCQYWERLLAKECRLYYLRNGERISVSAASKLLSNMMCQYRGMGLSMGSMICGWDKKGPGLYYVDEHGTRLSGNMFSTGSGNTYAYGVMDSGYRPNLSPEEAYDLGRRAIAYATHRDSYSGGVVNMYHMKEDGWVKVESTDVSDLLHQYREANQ

[4] = molecular target: T1, Proteasome Macropain subunit MB1; experiment: Inhibition of 20S proteasome beta5 subunit in human A549 cells using Suc-LLVY-luciferin substrate preincubated for 2 hrs followed by substrate addition and measured after 30 mins by luminometric analysis; assay type: cell-based
[5] = molecular target: T2, Proteasome subunit beta type-8; experiment: Inhibition of 20S immunoproteasome beta-5i subunit in human PBMC using Ac-ANW-luciferin substrate preincubated for 2 hrs followed by substrate addition and measured after 30 mins by luminometric analysis; assay type: cell-based
Homo sapiens [6] = species: Homo sapiens; experiment: Selectivity ratio of IC50 for inhibition of 20S proteasome beta5 subunit in human A549 cells to IC50 for inhibition of 20S immunoproteasome beta-5i subunit in human PBMC; assay type: cell-based
[7] = Clearance in mouse hepatocytes measured per million of cells; assay type: ADME, cell-based, Hepatocyte; details: read-out: CLH
[8] = Intrinsic clearance in mouse liver microsomes measured per mg protein; assay type: ADME, Microsome; details: read-out: CLH
[9] = Lipophilicity, log P of the compound; assay type: physicochemical; details: octanol/water

Structure (SMILES)	Ratio IC50 (Homo sapiens [1])	IC50 [2] [nM]	IC50 [3] [nM]	IC50 [4] [nM]	IC50 [5] [nM]	hepatocyte CLint [7] [µL/min/1e6 cells]	microsomal CLint [8] [µL/min/mg]	logP [9]	Ratio IC50 (Homo sapiens [6])
O=C(N[C@@H](Cc1coc2ccccc12)B(O)O)[C@H]1C[C@H]2CC[C@@H]1O2	> 210	> 30000	140	–	–	–	–	–	–
O=C(N[C@@H](Cc1coc2ccccc12)B(O)O)[C@@H]1C[C@@H]2CC[C@H]1O2	173	15000	89	–	–	–	–	–	–
O=C(Cc1ccncc1)N[C@@H](Cc1coc2ccccc12)B(O)O	222	2300	11	2540	71	–	–	–	36
O=C(Cc1ccccc1)N[C@@H](Cc1ccccc1)B(O)O	99	16000	160	9560	643	–	–	–	15
O=C(N[C@@H](Cc1coc2ccccc12)B(O)O)[C@@H]1CCCO1	128	24000	190	15000	400	99.7	34	1.9	38
O=C(Cc1ccccc1)N[C@@H](Cc1c(Cl)oc2ccccc12)B(O)O	104	20000	200	16500	824	–	–	–	–
O=C(N[C@@H](Cc1coc2ccccc12)B(O)O)[C@H]1CCOC1	175	5000	28	3000	55	–	16	2.1	54
O=C(Cc1ccccc1)N[C@@H](Cc1cc2ccccc2o1)B(O)O	172	5000	29	10100	824	–	–	–	12
O=C(Cc1ccccc1)N[C@@H](C[C@H]1COc2c(Cl)cccc21)B(O)O	> 49	> 30000	610	> 30000	9670	–	–	–	–
Cc1ccc(C[C@H](NC(=O)Cc2ccccc2)B(O)O)cc1C	182	15000	85	24500	434	–	–	–	56
Cc1ccc(C[C@H](NC(=O)Cc2ccccc2)B(O)O)c(C)c1	194	26000	130	> 30000	896	–	–	–	> 33
O=C(Cc1ccccc1)N[C@@H](C[C@@H]1COc2c(Cl)cccc21)B(O)O	1620	2900	1.8	6100	25	–	–	–	243
N#Cc1ccccc1CC(=O)N[C@@H](C[C@@H]1COc2c(Cl)cccc21)B(O)O	2570	7400	2.9	20900	51	–	–	–	406
O=C(Cc1ccccc1)N[C@@H](Cc1ccc(Cl)cc1)B(O)O	148	5600	38	8750	983	–	–	–	8.9
Cc1ccc(C[C@@H](NC(=O)Cc2ccccc2)B(O)O)cc1C	> 25	> 30000	1200	5900	1410	–	–	–	4.2
Cc1cccc2c1OC[C@H]2C[C@H](NC(=O)Cc1ccccc1C#N)B(O)O	3150	14000	4.4	> 30000	60	–	–	–	> 496
CC(C)C[C@H](NC(=O)Cc1ccccc1)B(O)O	15	15000	1000	7000	3300	–	–	–	2.1
Cc1cccc2c1OC[C@H]2C[C@H](NC(=O)Cc1ccccc1)B(O)O	2330	7200	3.1	14000	53	–	–	–	262
Cc1c(Cl)ccc2c(C[C@H](NC(=O)Cc3ccccc3)B(O)O)coc12	272	1700	6.4	7320	164	–	–	–	44
Cc1ccc(C[C@H](NC(=O)Cc2ccccc2)B(O)O)cc1	69	6300	91	6290	438	–	–	–	14
O=C(N[C@@H](Cc1coc2ccccc12)B(O)O)[C@@H]1CCOC1	410	4300	10	1690	13.7	26.7	19	1.85	123

Further compounds by falling IC50 [2], results first:

Ratio IC50 (Homo sapiens [1])	IC50 [2] [nM]	IC50 [3] [nM]	IC50 [4] [nM]	IC50 [5] [nM]	hepatocyte CLint [7] [µL/min/1e6 cells]	microsomal CLint [8] [µL/min/mg]	logP [9]	Structure (SMILES)	Ratio IC50 (Homo sapiens [6])
334	1700	5.2	2220	42	–	–	–	N#Cc1ccccc1CC(=O)N[C@@H](Cc1coc2ccccc12)B(O)O	52
70	1400	18	420	27.1	–	–	–	CC(=O)N[C@@H](Cc1coc2ccccc12)B(O)O	16
276	1200	4.5	2100	29	–	–	–	Cc1cccc2c(C[C@H](NC(=O)Cc3ccccc3)B(O)O)coc12	71
158	930	5.9	817	40	90.7	48	2.1	O=C(N[C@@H](Cc1coc2ccccc12)B(O)O)[C@H]1CCCO1	20
210	860	4.1	2060	41.5	–	–	–	O=C(Cc1ccccc1)N[C@@H](Cc1coc2c(Cl)cccc12)B(O)O	49
137	820	6	520	26.7	–	–	–	COCC(=O)N[C@@H](Cc1coc2ccccc12)B(O)O	20
212	770	3.7	894	31	–	–	–	O=C(Cn1cccn1)N[C@@H](Cc1coc2ccccc12)B(O)O	29
232	540	2.3	646	24.7	–	–	–	O=C(Cc1cccnc1)N[C@@H](Cc1coc2ccccc12)B(O)O	26
168	530	3.1	785	22.8	–	–	–	O=C(Cc1ccccc1)N[C@@H](Cc1coc2c(F)cccc12)B(O)O	34
212	410	1.9	328	18	–	–	–	O=C(Cc1cnccn1)N[C@@H](Cc1coc2ccccc12)B(O)O	18
205	400	1.9	241	10.6	–	–	–	COCCC(=O)N[C@@H](Cc1coc2ccccc12)B(O)O	23
101	230	2.3	204	15.5	–	–	–	O=C(Cc1ncccn1)N[C@@H](Cc1coc2ccccc12)B(O)O	13
63	140	2.2	222	8.9	–	–	–	COc1cccc2c(C[C@H](NC(=O)Cc3ccccc3)B(O)O)coc12	24
